Type in all cases: cell-based
In one data set the test system is corneal endothelium. Nature of the data set: Quality of cytoplasmic marking on corneal endothelium. As to conditions: human corneal endothelium, 4 μM, 45 min. Here is the method: The quality of cytoplasmic marking by compound 1 (solution F4267) on corneal endothelium was compared to that of Calcein-AM by staining paired corneas. The endothelial surface of the corneas was incubated for 45 minutes either with the F4267 solution (40 μM on the left eye, LE) or with Calcein-AM (4 μM on the right eye, RE) following a validated staining protocol. (Invest Ophthalmol Vis Sci. 2011, 52 (8), 6018-6025, Pipparelli and al.) (n=2 pairs of corneas).

Data set [1] concerns normal human fetal lung fibroblasts HEL299. The experiment in a line: Quality of cytoplasmic marking on adherent cells. The conditions noted are these: HEL299, 4 μM, FITC filter, macroscope. The method, then:
The quality of cytoplasmic marking by compound 1 on cells was evaluated on the adherent line of normal human fetal lung fibroblasts HEL299 [ATCC CCL-137], because they form a cellular monolayer (a single thickness facilitating the evaluation of cellular morphology and enumeration). Cells were seeded at 1.10^5 cells/mL 72 h before marking, then marked with the solution of compound 1 designated by the reference F4267 at [4 μM] and [40 μM] or with a solution of Calcein-AM [4 μM], then observed in a sterile Petri dish under the FITC filter of a macroscope (macro-zoom microscope, MVX10, Olympus, Tokyo, Japan) (2 wells per condition, n=1 experiments).

Data set [2] concerns HCEC-B4G12 corneal endothelial cells. Nature of the data set: Impact of repeated cell marking on cell viability. As to conditions: B4G12, 4 μM, daily marking 45 min, with or without PBS rinsing, D5. The method, then:
The experiment is carried out with HCEC-B4G12 corneal endothelial cells (CVCL_2065). The cells are thawed and cultured in their culture medium. The cells are trypsinized once a week before being seeded in wells of 24-well slides at a concentration of 1.10^5 cells/mL. The cells are then incubated for 5 days at 37° C., 5% CO2 until 90% confluence.
The different wells are stained daily with Calcein-AM (4 μM) or product F4267 (40 μM), according to the following conditions: marking for 45 minutes, then rinsing with PBS or marking for 45 minutes without rinsing. The marking and possibly rinsing step is repeated every day for 4 successive days, then after 2 days without marking, the marking is repeated again for 2 consecutive days.
The marking steps are carried out in duplicate. Afterwards, each marking, a well for each of the conditions is observed by epifluorescence microscopy (Olympus IX81 Microscope, FITC channel, ×4 objective, L: 25, Texp: 142.7 ms), while the second well (control) is kept in the darkness in order to evaluate the impact of fluorescence observation at the end of the study. On the last day of the study, the marking is carried out with calecin-AM (4 μM) in the presence of Hoescht ( 1/500) or the product F4267 (40 μM) in the presence of Hoescht ( 1/500), and the wells are imaged in MIA×4 (reconstruction of several fields to obtain a complete image of the well). […]

A short description of data set [3]: Cytotoxicity by LDH release (CyQUANT LDH Cytotoxicity Assay). As to conditions: human, HCE-2, 4 μM, 45 min contact, read-out: cytotoxicity (% of dead cells, LDH). The method, then: The cytotoxicity of a solution of compound 1 in Cremophor® EL [CAS 61791-12-6](molar ratio 1/1), designated under the reference F4267, compared to that of calcein-AM, was evaluated on the human corneal epithelium cell line immortalized by SV40, HCE-2 (ATCC CRL-11135) using two solutions of F4267 of concentrations [40 μM] and [1000 μM] or calcein-AM (FP-F19820, Interchim) [4 μM] diluted in optiMEM (11058021, Gibco, ThermoFisher) and deposited for 45 minutes on the cells (100 μL per well seeded 24 hours previously at 1.10^5 cells/mL [3788, Corning, surface: 0.32 cm^2]. After 45 minutes of contact with compound 1 or with calcein-AM, the cells were rinsed with their culture medium, then returned to culture in an oven with 5% CO2, at 37° C. Cytotoxicity was measured by dosing lactate dehydrogenases (LDH) released into the supernatant using the CyQUANT LDH Cytotoxicity Assay kit (C20301, ThermoFisher, see cytotoxicity test below) and expressed as % of dead cells using an internal standard. Cytotoxicity was evaluated 45 minutes (before rinsing), 24 h and 48 h after the start of incubation (3 wells per condition, n=1 experiments).
Lactate DeHydrogenases (LDH) are a family of ubiquitous cytosolic enzymes present in almost all cell types. Membrane damage causes a release of LDH into the external environment. There is a direct correlation between cellular cytotoxicity which causes membrane damage and the amount of LDH present in the extracellular environment. […]
The cytotoxicity test was carried out with tetrazolium salt (INT) which is converted into formazan. […] The concentration of formazan being proportional to the amount of LDH present in the medium, this was quantified by an absorbance reading at 555 nm, against a blank measurement at 650 nm to eliminate the parasitic absorbance of the medium. The percentage of dead cells is then calculated from the formula below, with the maximum LDH activity being that of a well from which all cells have been lysed, and the basal LDH activity, that of a non-treated well.

Results on one compound are retold here after US20240216547A1, “USE OF FLUORESCEIN DICARBONATE DERIVATIVES AS A CELL MARKER” (UNIVERSITE JEAN MONNET SAINT ETIENNE, priority 2021, published 2024).

SMILES strings stand for the structures.

In the case of `CC(=O)OCOC(=O)CN(CC(=O)OCOC(C)=O)Cc1c(OC(C)=O)ccc2c1Oc1c(ccc(OC(C)=O)c1CN(CC(=O)OCOC(C)=O)CC(=O)OCOC(C)=O)C21OC(=O)c2ccccc21` [Calcein-AM], the “marking differentiating dead cells from living cells” value in the data set with corneal endothelium is “marking differentiating dead cells from living cells”. Also, in data set [1], the “quality of cytoplasmic marking” value was “visualize the cell cytoplasms in a similar way”. Also, the “cell layer after repeated marking” value was “less dense” in data set [2] and “absence of cell layer” in data set [2] (listed as calcein-AM). Besides, in data set [3] (measured at 45 min), the cytotoxicity at 45 min, 4 µM was 0.6 ± 0.5%. The cytotoxicity at 24 h, 4 µM in data set [3] (measured at 24 h) was 26.4 ± 14.1%. The cytotoxicity at 48 h, 4 µM in data set [3] (measured at 48 h) was determined as 18.8 ± 11.1%.
